Peptide text beside a SMILES is read from it. * marks the point of attachment. Biotin = O=C1N[C@H]2[C@H](CS[C@H]2CCCCC(=O)*)N1
What was measured:
GST-ARNO(wt) = molecular target: T1, GST-ARNO(wt) (Homo sapiens, UniProt Q99418); test: a2N-derived peptide pull-down assay with GST-ARNO(wt); type: binding; set-up: key to interaction with ARNO (asterisk mark in Table 1): The interacting peptides are indicated in bold with an asterisk (*)
T1 construct: i) 1-400aa, full length ARNO(wt); made in house; host or cells: E. coli BL21(DE3)
T1 sequence (Q99418 1-400): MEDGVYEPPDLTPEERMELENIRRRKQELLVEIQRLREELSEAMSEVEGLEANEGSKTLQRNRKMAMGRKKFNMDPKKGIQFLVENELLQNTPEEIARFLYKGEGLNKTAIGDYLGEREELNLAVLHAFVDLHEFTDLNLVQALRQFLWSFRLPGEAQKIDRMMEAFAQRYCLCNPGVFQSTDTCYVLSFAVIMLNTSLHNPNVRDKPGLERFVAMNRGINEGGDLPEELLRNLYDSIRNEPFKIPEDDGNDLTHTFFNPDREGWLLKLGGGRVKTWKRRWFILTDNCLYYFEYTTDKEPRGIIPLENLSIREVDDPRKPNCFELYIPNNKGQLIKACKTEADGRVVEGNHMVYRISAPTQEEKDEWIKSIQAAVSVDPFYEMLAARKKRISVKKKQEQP
Procedure: FIG. 2A is an image of a Western blot showing the results of an a2N-derived peptide pull-down assay. The indicated a2N-derived peptides were immobilized on streptavidin-beads and incubated with purified recombinant GST-ARNO(wt). Interacting complexes were eluted and analyzed by Western blotting using monoclonal anti-GST antibodies.
FIG. 2B is an image of a Western blot showing the results of a pull-down assay with selected a2N-derived interacting peptides incubated with either GST (negative control) or GST-ARNO(wt). The first two lanes show the patterns obtained when either GST-only (lane 1) or GST-ARNO(wt) (lane 2) were loaded onto the gel.
Peptides were synthesized, purified by HPLC and analyzed by mass spectrometry in the MGH Peptide/Protein Core Facility. All a2N-derived peptides were synthesized with a biotin-tag on the N-terminus for immobilization on streptavidin-agarose beads and with an additional C-terminal cysteine residue for immobilization on beads using sulfhydryl-specific crosslinkers. A peptide corresponding to the PB-domain of ARNO was synthesized containing either a non-phosphorylated or a phosphorylated Ser392 residue. Peptide stock solutions were prepared in DMSO at 5 mM concentration and stored at −20° C. […]

PH-domain of ARNO = molecular target: T2, PH-domain of ARNO (Homo sapiens, UniProt Q99418); test: a2N-derived peptide pull-down with GST-PH domain; type: binding
T2 construct: iv) 253-378aa, plekstrin-homology (PH) domain; made in house; host or cells: E. coli BL21(DE3)
T2 sequence (Q99418 253-378): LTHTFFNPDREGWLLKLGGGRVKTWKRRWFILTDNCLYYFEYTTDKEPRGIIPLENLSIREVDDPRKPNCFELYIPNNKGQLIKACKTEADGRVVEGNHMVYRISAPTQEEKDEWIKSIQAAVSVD
Procedure: FIGS. 5A-C are a set of three images of Western blots showing the identification of interaction motif of a2N that is involved in specific binding with the Sec7 domain of ARNO. 5A, The catalytic Sec7 domain of ARNO interacts with two a2N-derived peptides, a2N-01 and a2N-03, in pull-down experiments. The peptide pull-down assay was performed with six a2N-derived interaction peptides immobilized on streptavidin-beads and incubated with purified recombinant GST-only or GST-Sec7 domain. Interacting complexes were eluted and analyzed by Western blotting using monoclonal anti-GST antibodies as described below. The loading controls for GST-only (lane 1) or GST-Sec7 (lane 2) are shown. […] The peptide pull-down assay was performed with peptides a2N-01 and a2N-03 immobilized on streptavidin-beads and incubated with purified recombinant GST-PH domain (5B) or GST-PB domain (5C). Interacting complexes were eluted and analyzed by Western blotting using monoclonal anti-GST antibodies. […]
These a2N-derived peptides were immobilized by an N-terminal biotin-tag, which ensured the same efficiency and equivalent binding to streptavidin-agarose beads. […] After washing beads four times in ice-cold binding buffer, the interacting complexes were eluted by boiling in SDS-PAGE sample buffer for 10 min at 95° C., resolved by SDS-PAGE and analyzed by Western blotting using monoclonal anti-GST antibody. […]

CSCC[C@H](NC(=O)CCCC[C@@H]1SC[C@@H]2NC(=O)N[C@@H]21)C(=O)NCC(=O)N[C@@H](CO)C(=O)N[C@@H](CC(C)C)C(=O)N[C@@H](Cc1ccccc1)C(=O)N[C@@H](CCCNC(=N)N)C(=O)N[C@@H](CO)C(=O)N[C@@H](CCC(=O)O)C(=O)N[C@@H](CO)C(=O)N[C@@H](CCSC)C(=O)N[C@@H](CS)C(=O)N[C@@H](CC(C)C)C(=O)N[C@@H](C)C(=O)N[C@@H](CCC(N)=O)C(=O)N[C@@H](CC(C)C)C(=O)N[C@@H](Cc1ccccc1)C(=O)N[C@@H](CC(C)C)C(=O)N[C@@H](CS)C(=O)O [a2N-01, Bio-MGSLFRSE SMCLAQLFL-Cys] (Biotin-MGSLFRSESMCLAQLFLC-OH; N-terminus and C-terminus assumed)
interaction of a2N-derived peptide with GST-ARNO(wt) in pull-down (GST-ARNO(wt); Western blot anti-GST, GST-only as control): specific interaction
interaction with ARNO (asterisk mark in Table 1) (GST-ARNO(wt); biotin-tagged peptides on streptavidin beads): Bio-MGSLFRSE SMCLAQLFL-Cys *
interaction with PH-domain of ARNO (PH-domain of ARNO): does not interact
